Test results reported in ChEMBL document CHEMBL2424537, “Design, synthesis, biological evaluation and docking study of 5-oxo-4,5-dihydropyrano[3,2-c]chromene derivatives as acetylcholinesterase and butyrylcholinesterase inhibitors” (Eur J Med Chem, 2013).

Key:
Acetylcholinesterase = Acetylcholinesterase (Electrophorus electricus, UniProt O42275)
Description: Inhibition of electric eel AChE using acetylthiocholine iodide as substrate after 2 mins by Ellman's method

[1] = Selectivity ratio of IC50 for equine serum BChE to IC50 for electric eel AChE
Cholinesterase = Cholinesterase (Equus caballus, UniProt P81908); assay: Inhibition of equine serum BChE using butyrylthiocholine iodide as substrate after 2 mins by Ellman's method
Sequence of Cholinesterase (P81908 whole entry): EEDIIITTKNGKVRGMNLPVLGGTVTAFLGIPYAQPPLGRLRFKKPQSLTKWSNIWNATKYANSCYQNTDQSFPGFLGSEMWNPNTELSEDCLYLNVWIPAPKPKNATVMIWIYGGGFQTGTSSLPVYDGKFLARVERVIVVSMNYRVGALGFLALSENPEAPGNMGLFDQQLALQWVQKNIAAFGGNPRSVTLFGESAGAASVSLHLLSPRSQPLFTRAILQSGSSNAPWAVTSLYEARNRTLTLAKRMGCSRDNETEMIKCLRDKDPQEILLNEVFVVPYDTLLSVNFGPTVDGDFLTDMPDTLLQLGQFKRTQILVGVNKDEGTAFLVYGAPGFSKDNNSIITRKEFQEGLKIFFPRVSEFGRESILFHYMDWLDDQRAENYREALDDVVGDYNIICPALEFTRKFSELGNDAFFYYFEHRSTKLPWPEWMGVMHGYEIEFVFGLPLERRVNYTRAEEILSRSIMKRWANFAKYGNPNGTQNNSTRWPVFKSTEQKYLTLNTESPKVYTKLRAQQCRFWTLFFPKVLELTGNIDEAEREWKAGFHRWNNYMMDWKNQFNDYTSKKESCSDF

Sequence of Acetylcholinesterase (O42275 whole entry): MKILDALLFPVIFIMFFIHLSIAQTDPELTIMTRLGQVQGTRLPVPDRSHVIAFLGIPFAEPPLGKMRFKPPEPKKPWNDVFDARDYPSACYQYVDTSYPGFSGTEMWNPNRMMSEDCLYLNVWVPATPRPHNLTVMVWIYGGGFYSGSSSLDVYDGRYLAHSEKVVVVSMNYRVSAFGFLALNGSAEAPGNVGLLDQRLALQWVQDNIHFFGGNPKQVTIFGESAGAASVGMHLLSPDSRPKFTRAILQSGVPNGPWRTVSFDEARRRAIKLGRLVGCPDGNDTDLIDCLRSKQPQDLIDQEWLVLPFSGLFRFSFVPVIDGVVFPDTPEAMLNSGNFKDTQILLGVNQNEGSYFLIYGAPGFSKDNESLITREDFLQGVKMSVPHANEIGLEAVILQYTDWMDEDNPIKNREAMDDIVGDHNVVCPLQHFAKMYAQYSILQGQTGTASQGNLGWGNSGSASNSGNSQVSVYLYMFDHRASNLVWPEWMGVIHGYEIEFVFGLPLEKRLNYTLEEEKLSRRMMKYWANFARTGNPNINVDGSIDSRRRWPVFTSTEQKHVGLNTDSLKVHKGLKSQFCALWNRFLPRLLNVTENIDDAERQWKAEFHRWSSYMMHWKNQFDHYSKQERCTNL

| SMILES | IC50 (Acetylcholinesterase) | Ratio IC50 [1] | IC50 (Cholinesterase) |
| --- | --- | --- | --- |
| N#CC1=C(N)Oc2c(c(=O)oc3ccccc23)C1c1cc[n+](Cc2cccc(F)c2)cc1 (stereo not given) | 2800 nM | > 17.8 | > 50000 nM |
| N#CC1=C(N)Oc2c(c(=O)oc3ccccc23)C1c1ccc[n+](Cc2ccc(F)cc2)c1 (stereo not given) | 2170 nM | 1 | 2170 nM |
| N#CC1=C(N)Oc2c(c(=O)oc3ccccc23)C1c1ccc[n+](Cc2ccccc2F)c1 (stereo not given) | 1800 nM | 22.8 | 41000 nM |
| Cc1cccc(C[n+]2ccc(C3C(C#N)=C(N)Oc4c3c(=O)oc3ccccc43)cc2)c1 (stereo not given) | 1900 nM | 2.6 | 5500 nM |
| N#CC1=C(N)Oc2c(c(=O)oc3ccccc23)C1c1ccc[n+](Cc2ccccc2Cl)c1 (stereo not given) | 1000 nM | 11.2 | 11200 nM |
| N#CC1=C(N)Oc2c(c(=O)oc3ccccc23)C1c1cc[n+](Cc2ccccc2F)cc1 (stereo not given) | 2900 nM | 12.4 | 36000 nM |
| N#CC1=C(N)Oc2c(c(=O)oc3ccccc23)C1c1ccc[n+](Cc2cccc(F)c2)c1 (stereo not given) | 2000 nM | > 25 | > 50000 nM |
| Cc1ccccc1C[n+]1ccc(C2C(C#N)=C(N)Oc3c2c(=O)oc2ccccc32)cc1 (stereo not given) | 3700 nM | 4.8 | 17800 nM |
| N#CC1=C(N)Oc2c(c(=O)oc3ccccc23)C1c1cc[n+](Cc2ccc(Cl)cc2Cl)cc1 (stereo not given) | 831 nM | 0.68 | 566 nM |
| N#CC1=C(N)Oc2c(c(=O)oc3ccccc23)C1c1cc[n+](Cc2ccccc2Cl)cc1 (stereo not given) | 1500 nM | 3.2 | 4800 nM |
| N#CC1=C(N)Oc2c(c(=O)oc3ccccc23)C1c1cc[n+](Cc2cccc(Cl)c2)cc1 (stereo not given) | 480 nM | 45.4 | 21800 nM |
| N#CC1=C(N)Oc2c(c(=O)oc3ccccc23)C1c1ccc[n+](Cc2cccc(Cl)c2)c1 (stereo not given) | 7400 nM | 5.2 | 38400 nM |
| Cc1cccc(C[n+]2cccc(C3C(C#N)=C(N)Oc4c3c(=O)oc3ccccc43)c2)c1 (stereo not given) | 790 nM | 18.1 | 14300 nM |
| N#CC1=C(N)Oc2c(c(=O)oc3ccccc23)C1c1cc[n+](Cc2ccc(F)cc2)cc1 (stereo not given) | 38 nM | 48.4 | 1840 nM |
| N#CC1=C(N)Oc2c(c(=O)oc3ccccc23)C1c1cc[n+](Cc2ccc(Cl)c(Cl)c2)cc1 (stereo not given) | 44 nM | 28.9 | 1270 nM |
